Source: the supplement of paper PMC9663587

compound: CCOc1cc2ncc(C#N)c(Nc3ccc(OCc4ccccn4)c(Cl)c3)c2cc1NC(=O)/C=C/CN(C)C [Neratinib/HKI272]; test: increase in dead-cell fraction, 72 h; higher = more death; settings: 3.162 µM;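 note: breast cancer cell lines in 384-well plates, stained with Hoechst plus LIVE/DEAD far red dye and imaged, cells above an LDR intensity threshold counted dead, Hoechst-negative corpses included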

MDAMB175VII was tested, and the “increase in dead-cell fraction” value was 0.49.

compound: CN(C)C(=O)c1cc2cnc(Nc3ccc(N4CCNCC4)cn3)nc2n1C1CCCC1 [LEE011/Ribociclib]; test: as above; settings: 0.001 µM

Point of comparison: MDAMB175VII, “increase in dead-cell fraction” value 0.0066. Against it:
- HTERT_HME1 — lower, 0.0038
- MCF7 — lower, 0.0006
- MCF10A — lower, -0.0014
- MCF12A — lower, 0.0031

same assay, conditions: 0.003162 µM

Point of comparison: MDAMB175VII, “increase in dead-cell fraction” value 0.0124. Against it:
- HTERT_HME1 — higher, 0.0127
- MCF7 — lower, 0.0004
- MCF10A — lower, 0.0018
- MCF12A — lower, -0.0078

same assay, conditions: 0.01 µM

Point of comparison: HTERT_HME1, “increase in dead-cell fraction” value 0.0406. Against it:
- MCF7 — lower, 0.0034
- MCF10A — lower, -0.0007
- MCF12A — lower, 0.0001
- MDAMB175VII — lower, 0.0047

same assay, conditions: 0.03162 µM

Point of comparison: HTERT_HME1, “increase in dead-cell fraction” value 0.0372. Against it:
- MCF7 — lower, 0.0049
- MCF10A — lower, -0.0008
- MCF12A — lower, 0.0156
- MDAMB175VII — lower, 0.0118

same assay, conditions: 0.1 µM

Point of comparison: HTERT_HME1, “increase in dead-cell fraction” value 0.0514. Against it:
- MCF7 — lower, 0.0006
- MCF10A — lower, -0.0006
- MCF12A — lower, 0.002
- MDAMB175VII — lower, 0.0182

same assay, conditions: 0.3162 µM

Point of comparison: MCF12A, “increase in dead-cell fraction” value 0.0029. Against it:
- HTERT_HME1 — higher, 0.0715
- MCF7 — higher, 0.0139
- MCF10A — lower, 0.0001
- MDAMB175VII — higher, 0.0102

same assay, conditions: 1 µM

Point of comparison: HTERT_HME1, “increase in dead-cell fraction” value 0.0391. Against it:
- MCF7 — lower, 0.0076
- MCF10A — lower, -0.0005
- MCF12A — lower, 0.0076
- MDAMB175VII — lower, 0.0154

same assay, conditions: 3.162 µM

Point of comparison: MDAMB175VII, “increase in dead-cell fraction” value 0.0181. Against it:
- HTERT_HME1 — higher, 0.0932
- MCF7 — lower, 0.0151
- MCF10A — lower, -0.0003
- MCF12A — lower, 0.0018

same assay, conditions: 10 µM

Point of comparison: MDAMB175VII, “increase in dead-cell fraction” value 0.0148. Against it:
- HTERT_HME1 — higher, 0.132
- MCF7 — lower, 0.0147
- MCF10A — lower, 0.0032
- MCF12A — lower, 0.0126

compound: CN(C)C/C=C/C(=O)Nc1ccc(C(=O)N2CCC[C@@H](Nc3ncc(Cl)c(-c4c[nH]c5ccccc45)n3)C2)cc1 [THZ531]; test: as above; settings: 0.0001 µM

Point of comparison: MCF10A, “increase in dead-cell fraction” value -0.0006. Against it:
- HTERT_HME1 — higher, -0.0002
- MCF7 — higher, 0.0003
- MCF12A — higher, 0.0108
- MDAMB175VII — higher, 0.0053

same assay, conditions: 0.0003162 µM

Point of comparison: MCF7, “increase in dead-cell fraction” value -0.0011. Against it:
- HTERT_HME1 — lower, -0.0145
- MCF10A — higher, -0.0007
- MCF12A — higher, 0.0023
- MDAMB175VII — higher, 0.0019

same assay, conditions: 0.001 µM

Point of comparison: MCF7, “increase in dead-cell fraction” value 0.0038. Against it:
- HTERT_HME1 — higher, 0.0054
- MCF10A — lower, 0.0006
- MCF12A — lower, -0.0009
- MDAMB175VII — higher, 0.0075

same assay, conditions: 0.003162 µM

Point of comparison: MDAMB175VII, “increase in dead-cell fraction” value 0.0041. Against it:
- HTERT_HME1 — lower, -0.0171
- MCF7 — lower, -0.0013
- MCF10A — lower, -0.0006
- MCF12A — lower, 0.0027

same assay, conditions: 0.01 µM

Point of comparison: MDAMB175VII, “increase in dead-cell fraction” value 0.0043. Against it:
- HTERT_HME1 — lower, -0.0178
- MCF7 — higher, 0.0059
- MCF10A — lower, -0.0015
- MCF12A — lower, 0.0039

same assay, conditions: 0.03162 µM

Point of comparison: MCF12A, “increase in dead-cell fraction” value 0.0089. Against it:
- HTERT_HME1 — lower, 0.0065
- MCF7 — lower, 0.0084
- MCF10A — lower, 0.0007
- MDAMB175VII — lower, 0.0033

same assay, conditions: 0.1 µM

Point of comparison: MCF10A, “increase in dead-cell fraction” value 0.0013. Against it:
- HTERT_HME1 — higher, 0.0042
- MCF7 — higher, 0.125
- MCF12A — lower, 0.0009
- MDAMB175VII — higher, 0.105

same assay, conditions: 0.3162 µM

Point of comparison: MDAMB175VII, “increase in dead-cell fraction” value 0.231. Against it:
- HTERT_HME1 — lower, 0.175
- MCF7 — lower, 0.185
- MCF10A — lower, 0.0057
- MCF12A — lower, 0.0073

same assay, conditions: 1 µM

Point of comparison: HTERT_HME1, “increase in dead-cell fraction” value 0.386. Against it:
- MCF7 — lower, 0.355
- MCF10A — higher, 0.795
- MCF12A — lower, 0.332
- MDAMB175VII — lower, 0.0668

compound: CC(=O)c1c(C)c2cnc(Nc3ccc(N4CCN(CCOCCOCCOCCNC(=O)COc5cccc6c5C(=O)N(C5CCC(=O)NC5=O)C6=O)CC4)cn3)nc2n(C2CCCC2)c1=O [BSJ-03-123]; test: as above; settings: 0.001 µM

Point of comparison: HTERT_HME1, “increase in dead-cell fraction” value 0.0124. Against it:
- MCF7 — lower, 0.0009
- MCF10A — lower, 0.0008
- MCF12A — lower, -0.0046
- MDAMB175VII — lower, 0.0049

same assay, conditions: 0.003162 µM

Point of comparison: MCF10A, “increase in dead-cell fraction” value -0.0013. Against it:
- HTERT_HME1 — lower, -0.0077
- MCF7 — higher, 0.0021
- MCF12A — higher, 0.0003
- MDAMB175VII — higher, 0.0003

same assay, conditions: 0.01 µM

Point of comparison: MCF10A, “increase in dead-cell fraction” value -0.0008. Against it:
- HTERT_HME1 — higher, 0.0297
- MCF7 — higher, 0.0018
- MCF12A — higher, 0.0014
- MDAMB175VII — higher, 0.0001

same assay, conditions: 0.03162 µM

Point of comparison: MCF10A, “increase in dead-cell fraction” value 0.0005. Against it:
- HTERT_HME1 — higher, 0.0411
- MCF7 — higher, 0.0017
- MCF12A — lower, -0.0002
- MDAMB175VII — higher, 0.0082

same assay, conditions: 0.1 µM

Point of comparison: MDAMB175VII, “increase in dead-cell fraction” value 0.0009. Against it:
- HTERT_HME1 — higher, 0.0394
- MCF7 — higher, 0.0038
- MCF10A — higher, 0.0018
- MCF12A — higher, 0.0054

same assay, conditions: 0.3162 µM

Point of comparison: MDAMB175VII, “increase in dead-cell fraction” value 0.0035. Against it:
- HTERT_HME1 — higher, 0.0338
- MCF7 — lower, 0.0034
- MCF10A — lower, -0.0009
- MCF12A — lower, 0.0008

same assay, conditions: 1 µM

Point of comparison: MDAMB175VII, “increase in dead-cell fraction” value 0.0093. Against it:
- HTERT_HME1 — higher, 0.131
- MCF7 — lower, 0.008
- MCF10A — lower, 0.0005
- MCF12A — higher, 0.0162

same assay, conditions: 3.162 µM

Point of comparison: MDAMB175VII, “increase in dead-cell fraction” value 0.009. Against it:
- HTERT_HME1 — higher, 0.119
- MCF7 — lower, 0.0042
- MCF10A — lower, 0.0017
- MCF12A — higher, 0.0226

same assay, conditions: 10 µM

Point of comparison: MCF7, “increase in dead-cell fraction” value 0.274. Against it:
- HTERT_HME1 — higher, 0.363
- MCF10A — lower, 0.153
- MCF12A — lower, 0.151
